Test results taken from ChEMBL document CHEMBL1201862, “PubChem BioAssay data set” (2004).
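Test compounds were applied to cells in 96-well plates for 48 hours at 5 doses. Abbreviation: GI50, concentration required for 50% inhibition of growth.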 Calls of active or inactive are those of the source. Cut-off read from the data, not from the text of the source: active = GI50 up to about 1.1 µM and inactive = higher.

Columns and labels:
Assay in all cases: NCI tumour cell line growth inhibition, 48 h
[1] = test system: ACHN
[2] = test system: BT-549
[3] = test system: CAKI-1
[4] = test system: HCC 2998
[5] = test system: HCT-116
[6] = test system: HOP-62
[7] = test system: K562
[8] = test system: KM12
[9] = test system: LOX IMVI
[10] = test system: MOLT-4
[11] = test system: NCI-H23
[12] = test system: OVCAR-3
[13] = test system: OVCAR-5
[14] = test system: RXF 393
[15] = test system: SF-295
[16] = test system: SK-MEL-2
[17] = test system: SNB-75
[18] = test system: TK-10
[19] = test system: UO-31

Structure (SMILES)	GI50 [1]	GI50 [2]	GI50 [3]	GI50 [4]	GI50 [5]	GI50 [6]	GI50 [7]	GI50 [8]	GI50 [9]	GI50 [10]	GI50 [11]	GI50 [12]	GI50 [13]	GI50 [14]	GI50 [15]	GI50 [16]	GI50 [17]	GI50 [18]	GI50 [19]
Cc1cc(O)nc2cc3oc4ccccc4c3cc12	24.2 µM (inactive)	> 100 µM (inactive)	> 100 µM (inactive)	2.72 µM (inactive)	27.5 µM (inactive)	> 100 µM (inactive)	30.9 µM (inactive)	70.1 µM (inactive)	> 28.2 µM (inactive)	3.71 µM (inactive)	> 68.5 µM (inactive)	> 33.6 µM (inactive)	> 83.2 µM (inactive)	> 100 µM (inactive)	> 100 µM (inactive)	> 100 µM (inactive)	> 100 µM (inactive)	30.6 µM (inactive)	> 27.5 µM (inactive)
Cc1ccc(/C=N/Nc2nncc3ccccc23)s1	> 100 µM (inactive)	> 55.8 µM (inactive)	> 100 µM (inactive)	> 72.8 µM (inactive)	59.6 µM (inactive)	> 46.7 µM (inactive)	> 100 µM (inactive)	> 46.2 µM (inactive)	> 61.2 µM (inactive)	> 100 µM (inactive)	> 83.8 µM (inactive)	> 55.8 µM (inactive)	> 100 µM (inactive)	> 100 µM (inactive)	35.9 µM (inactive)	> 95.3 µM (inactive)	> 44.2 µM (inactive)	> 52 µM (inactive)	> 100 µM (inactive)
Cc1nnc2sc(Cl)nn12	23.3 µM (inactive)	17.7 µM (inactive)	21 µM (inactive)	15.5 µM (inactive)	8.95 µM (inactive)	38 µM (inactive)	8.05 µM (inactive)	14.5 µM (inactive)	10 µM (inactive)	5.65 µM (inactive)	17.3 µM (inactive)	19 µM (inactive)	23 µM (inactive)	> 10 µM (inactive)	17.7 µM (inactive)	24.1 µM (inactive)	45.3 µM (inactive)	27.7 µM (inactive)	29.6 µM (inactive)
CC(=O)OC(C)(C)/N=N/c1ccc(Br)cc1	1.33 µM (inactive)	97.7 µM (inactive)	16.7 µM (inactive)	16.6 µM (inactive)	0.851 µM (active)	34.3 µM (inactive)	0.0596 µM (active)	5.79 µM (inactive)	3.09 µM (inactive)	3.56 µM (inactive)	25.8 µM (inactive)	13.6 µM (inactive)	1.66 µM (inactive)	20.6 µM (inactive)	0.153 µM (active)	> 85.7 µM (inactive)	> 53.5 µM (inactive)	23.7 µM (inactive)	0.425 µM (active)
CC(=O)OC1=C(c2ccccc2)S(=O)(=O)c2ccccc21	> 100 µM (inactive)	> 100 µM (inactive)	> 100 µM (inactive)	> 100 µM (inactive)	> 100 µM (inactive)	> 100 µM (inactive)	> 100 µM (inactive)	> 100 µM (inactive)	> 100 µM (inactive)	> 100 µM (inactive)	> 100 µM (inactive)	> 100 µM (inactive)	> 100 µM (inactive)	64 µM (inactive)	> 100 µM (inactive)	> 100 µM (inactive)	> 100 µM (inactive)	> 100 µM (inactive)	> 100 µM (inactive)
CCOc1cc(NC(C)=O)ccc1C(=O)NNC(=O)c1ccccc1OC(C)=O	3.79 µM (inactive)	19.5 µM (inactive)	3.21 µM (inactive)	4.95 µM (inactive)	3.59 µM (inactive)	8.61 µM (inactive)	3.02 µM (inactive)	7.08 µM (inactive)	5.45 µM (inactive)	0.995 µM (active)	18 µM (inactive)	3.24 µM (inactive)	10.2 µM (inactive)	3.41 µM (inactive)	8.36 µM (inactive)	24.3 µM (inactive)	8.05 µM (inactive)	1.5 µM (inactive)	3.86 µM (inactive)
COc1ccc2c(c1)C1Oc3ccccc3CC1CO2 (stereo not given)	60.1 µM (inactive)	52.2 µM (inactive)	56.8 µM (inactive)	19.7 µM (inactive)	44.7 µM (inactive)	> 100 µM (inactive)	52.2 µM (inactive)	37.2 µM (inactive)	47.2 µM (inactive)	21.5 µM (inactive)	> 100 µM (inactive)	57.7 µM (inactive)	> 100 µM (inactive)	24.9 µM (inactive)	76.4 µM (inactive)	21.5 µM (inactive)	28.4 µM (inactive)	73.1 µM (inactive)	22.3 µM (inactive)
Nc1cccc(C2CCCc3c2[nH]c2ccccc32)c1 (stereo not given)	25 µM (inactive)	18.4 µM (inactive)	23.9 µM (inactive)	22.6 µM (inactive)	13.4 µM (inactive)	30.5 µM (inactive)	13.6 µM (inactive)	17.5 µM (inactive)	12.4 µM (inactive)	20.6 µM (inactive)	19.1 µM (inactive)	26.7 µM (inactive)	16.3 µM (inactive)	15.3 µM (inactive)	20.8 µM (inactive)	17.5 µM (inactive)	11.9 µM (inactive)	32.4 µM (inactive)	26 µM (inactive)
Cc1ccc(C(=O)N/N=C(\N=N\c2cccc(Cl)c2)c2ccc(N(CCC#N)CCC#N)cc2C)cc1	> 100 µM (inactive)	> 100 µM (inactive)	> 100 µM (inactive)	> 100 µM (inactive)	> 100 µM (inactive)	> 100 µM (inactive)	> 100 µM (inactive)	> 100 µM (inactive)	> 100 µM (inactive)	41.5 µM (inactive)	> 100 µM (inactive)	93.3 µM (inactive)	> 100 µM (inactive)	29.4 µM (inactive)	> 100 µM (inactive)	> 100 µM (inactive)	75.9 µM (inactive)	> 100 µM (inactive)	> 100 µM (inactive)
[N-]=[N+]=Nc1ccc2c(c1)Sc1ccccc1N2CCCCN1CCN(C(=O)CCNC(=O)Cc2ccc(C(=O)c3ccccc3)cc2)CC1	3.61 µM (inactive)	5.06 µM (inactive)	8.61 µM (inactive)	2.53 µM (inactive)	3.54 µM (inactive)	8.45 µM (inactive)	1.68 µM (inactive)	3.31 µM (inactive)	2.23 µM (inactive)	1.54 µM (inactive)	4.78 µM (inactive)	4.5 µM (inactive)	6.53 µM (inactive)	10.9 µM (inactive)	3.78 µM (inactive)	4.29 µM (inactive)	5.21 µM (inactive)	13.2 µM (inactive)	5.32 µM (inactive)
N#CC1(c2ccccc2)CCN(C2(c3ccccc3)CCCCC2)CC1	> 100 µM (inactive)	> 100 µM (inactive)	> 100 µM (inactive)	> 100 µM (inactive)	> 100 µM (inactive)	> 100 µM (inactive)	> 100 µM (inactive)	> 100 µM (inactive)	> 100 µM (inactive)	> 100 µM (inactive)	> 100 µM (inactive)	> 100 µM (inactive)	> 100 µM (inactive)	> 100 µM (inactive)	> 100 µM (inactive)	> 100 µM (inactive)	> 100 µM (inactive)	> 100 µM (inactive)	> 100 µM (inactive)
CN1CCCOC(c2ccc(Cl)cc2)O1 (stereo not given)	> 100 µM (inactive)	> 100 µM (inactive)	> 100 µM (inactive)	> 100 µM (inactive)	> 100 µM (inactive)	> 100 µM (inactive)	> 100 µM (inactive)	> 100 µM (inactive)	> 100 µM (inactive)	> 100 µM (inactive)	> 100 µM (inactive)	> 100 µM (inactive)	> 100 µM (inactive)	> 100 µM (inactive)	> 100 µM (inactive)	> 100 µM (inactive)	> 100 µM (inactive)	> 100 µM (inactive)	> 100 µM (inactive)
O=C(COc1ccc(OCC(=O)N2C(=O)CN(c3ccccc3)C2=S)cc1)N1C(=O)CN(c2ccccc2)C1=S	> 53.3 µM (inactive)	> 61.4 µM (inactive)	> 57.7 µM (inactive)	> 58.5 µM (inactive)	> 61.4 µM (inactive)	> 53.2 µM (inactive)	> 100 µM (inactive)	> 51.5 µM (inactive)	> 25 µM (inactive)	> 25 µM (inactive)	> 56.9 µM (inactive)	49.3 µM (inactive)	> 50.9 µM (inactive)	55.8 µM (inactive)	> 53 µM (inactive)	> 51.4 µM (inactive)	> 25 µM (inactive)	> 54.7 µM (inactive)	> 56.6 µM (inactive)
COC(=O)/C=C\C(C#N)(C#N)/N=C/c1ccccc1	2.3 µM (inactive)	5.2 µM (inactive)	2.86 µM (inactive)	19.4 µM (inactive)	1.77 µM (inactive)	18.5 µM (inactive)	3.37 µM (inactive)	17.5 µM (inactive)	2.32 µM (inactive)	0.953 µM (active)	7.35 µM (inactive)	2.11 µM (inactive)	19 µM (inactive)	1.94 µM (inactive)	18.7 µM (inactive)	16.7 µM (inactive)	6.35 µM (inactive)	2.25 µM (inactive)	2.42 µM (inactive)
CCN1/C(=C/c2ccc3ccccc3[n+]2CC)C=Cc2ccccc21	2.33 µM (inactive)	1.69 µM (inactive)	10 µM (inactive)	0.482 µM (active)	0.509 µM (active)	0.805 µM (active)	0.262 µM (active)	0.149 µM (active)	0.561 µM (active)	0.641 µM (active)	0.551 µM (active)	0.269 µM (active)	5.37 µM (inactive)	2.12 µM (inactive)	0.479 µM (active)	0.687 µM (active)	0.35 µM (active)	2.81 µM (inactive)	3.09 µM (inactive)
